Measurements from ChEMBL document CHEMBL1153297, “Discovery of non-peptidergic MrgX1 and MrgX2 receptor agonists and exploration of an initial SAR using solid-phase synthesis” (Bioorg Med Chem Lett, 2009).
Active and inactive are the calls of the source. The rule behind the calls is not given here. Bridge positions count the residues as written; N and C are the ends. Square brackets hold non-standard residues; d marks the D form. Peptide text beside a SMILES is read from it.

How the values were obtained:
[1] = Agonist activity at monkey MrgX1 receptor; assay type: functional, Macaca mulatta
Macaca mulatta [2] = species: Macaca mulatta; test: Agonist activity at monkey MrgX1 receptor at 10 uM relative to BAM22; assay type: functional
Macaca mulatta [3] = species: Macaca mulatta; test: Agonist activity at monkey MrgX2 receptor at 10 uM relative to cortistatin-14; assay type: functional
[4] = molecular target: T1, Mas-related G-protein coupled receptor member X1 (Homo sapiens, UniProt Q96LB2); test: Agonist activity at human MrgX1 receptor at 10 uM relative to BAM22; assay type: functional
T1 sequence (Q96LB2 whole entry): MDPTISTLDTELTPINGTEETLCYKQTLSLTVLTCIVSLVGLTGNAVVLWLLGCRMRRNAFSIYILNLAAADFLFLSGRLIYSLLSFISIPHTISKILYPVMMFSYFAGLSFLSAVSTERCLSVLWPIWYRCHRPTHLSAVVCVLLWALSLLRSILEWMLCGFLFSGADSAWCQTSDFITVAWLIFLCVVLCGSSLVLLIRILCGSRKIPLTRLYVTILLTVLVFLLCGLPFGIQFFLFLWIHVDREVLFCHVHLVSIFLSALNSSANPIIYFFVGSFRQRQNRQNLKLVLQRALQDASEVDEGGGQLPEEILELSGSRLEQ

[5] = molecular target: T2, Mas-related G-protein coupled receptor member X2 (Homo sapiens) (UniProt Q96LB1); test: Agonist activity at human MrgX2 receptor at 10 uM relative to cortistatin-14; assay type: functional
T2 sequence (whole entry): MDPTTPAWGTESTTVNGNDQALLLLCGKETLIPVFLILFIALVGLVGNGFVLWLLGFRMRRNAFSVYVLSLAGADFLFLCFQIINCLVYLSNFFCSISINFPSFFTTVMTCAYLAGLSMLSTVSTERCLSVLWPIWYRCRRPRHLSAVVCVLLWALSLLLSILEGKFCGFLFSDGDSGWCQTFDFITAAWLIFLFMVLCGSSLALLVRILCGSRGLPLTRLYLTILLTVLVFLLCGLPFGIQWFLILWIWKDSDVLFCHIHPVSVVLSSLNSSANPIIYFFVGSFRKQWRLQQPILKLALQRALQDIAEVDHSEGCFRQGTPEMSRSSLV

[6] = molecular target: T1, Mas-related G-protein coupled receptor member X1; test: Agonist activity at human MrgX1 receptor; assay type: functional
[7] = molecular target: T3, Mas-related G-protein coupled receptor member X2 (Homo sapiens, UniProt Q96LB1); test: Agonist activity at human MrgX2 receptor; assay type: functional
T3 sequence (Q96LB1 whole entry): T2 sequence (whole entry)

[8] = Metabolic stability in human liver microsome assessed as intrinsic clearance; assay type: ADME; settings: liver microsomes
[9] = molecular target: T1, Mas-related G-protein coupled receptor member X1; test: Agonist activity at MrgX1 receptor by calcium mobilization assay; assay type: functional
[10] = Agonist activity at monkey MrgX2 receptor; assay type: functional, Macaca mulatta

SMILES	pEC50 [1]	Efficacy (Macaca mulatta [2])	Efficacy (Macaca mulatta [3])	Efficacy [4]	Efficacy [5]	EC50 [6] [nM]	EC50 [7] [nM]	microsomal CLint [8] [µL/min/mg]	Activity [9]	pEC50 [10]
CC(C)[C@H]1C(=O)Nc2ccc(NCCN3CCCCC3)cc2-c2nc3cc(C(=O)N4CCN(c5ccc(F)cc5)CC4)ccc3n21	6	57%	inactive	94%	inactive	1260				
CC(C)[C@H]1C(=O)Nc2ccc(N3CCN(Cc4ccccc4)CC3)cc2-c2nc3cc(C(=O)N(C)C4CCN(C)CC4)ccc3n21		inactive	133%	inactive	216%		398	5	Active	6.7
CCC(C)[C@H]1C(=O)Nc2ccc(NCCCN(C)C)cc2-c2nc3cc(C(=O)NCc4cccc(C(F)(F)F)c4)ccc3n21 (stereo partly specified)	6.1	157%	85%	147%	103%	63.1	631			5.4
C[C@@H](O)[C@@H]1NC(=O)[C@H](CCCCN)NC(=O)[C@H](Cc2c[nH]c3ccccc23)NC(=O)[C@H](Cc2ccccc2)NC(=O)[C@H](Cc2ccccc2)NC(=O)[C@H](CC(N)=O)NC(=O)[C@H](CCCCN)NC(=O)[C@@H](NC(=O)[C@@H]2CCCN2)CSSC[C@@H](C(=O)N[C@@H](CCCCN)C(=O)O)NC(=O)[C@H](CO)NC(=O)[C@H](CO)NC(=O)[C@H](Cc2ccccc2)NC1=O [CORTISTATIN-14] (H-PCKNFFWKTFSSCK-OH; disulfide 2-13)							501			
CCC(C)[C@H]1C(=O)Nc2ccc(NCCN3CCCCC3)cc2-c2nc3cc(C(=O)NCc4cccc(C(F)(F)F)c4)ccc3n21 (stereo partly specified)	6.1	127%	inactive	133%	28%	200	2000			
CCC(C)[C@H]1C(=O)Nc2ccc(N3CCC(NC(C)=O)C3)cc2-c2nc3cc(C(=O)NCc4cccc(C(F)(F)F)c4)ccc3n21 (stereo partly specified)	6.4	124%	27%	129%	41%	316	1260			5.7
CC(C)[C@H]1C(=O)Nc2ccc(NC3CCCCCC3)cc2-c2nc3cc(C(=O)N4CCCN(C)CC4)ccc3n21		inactive	50%	inactive	110%		316			6.4
CCC(C)[C@H]1C(=O)Nc2ccc(NCCOCCOCCN)cc2-c2nc3cc(C(=O)NCc4cccc(C(F)(F)F)c4)ccc3n21 (stereo partly specified)	6.1	126%	inactive	135%	inactive	316				
CC(=O)NC1CCN(c2ccc3c(c2)-c2nc4cc(C(=O)N5CCN(c6ccc(F)cc6)CC5)ccc4n2[C@@H](C(C)C)C(=O)N3)C1 (stereo partly specified)	5.6	89%	inactive	98%	inactive	2510				
CC(C)[C@H]1C(=O)Nc2ccc(NCc3ccccc3)cc2-c2nc3cc(C(=O)N(C)C4CCN(C)CC4)ccc3n21				inactive	87%		158			
CSCC[C@H](NC(=O)[C@H](Cc1ccccc1)NC(=O)CNC(=O)CNC(=O)[C@@H](N)Cc1ccc(O)cc1)C(=O)N[C@@H](CCCNC(=N)N)C(=O)N[C@@H](CCCNC(=N)N)C(=O)N[C@H](C(=O)NCC(=O)N[C@@H](CCCNC(=N)N)C(=O)N1CCC[C@H]1C(=O)N[C@@H](CCC(=O)O)C(=O)N[C@@H](Cc1c[nH]c2ccccc12)C(=O)N[C@@H](Cc1c[nH]c2ccccc12)C(=O)N[C@@H](CCSC)C(=O)N[C@@H](CC(=O)O)C(=O)N[C@@H](Cc1ccc(O)cc1)C(=O)N[C@@H](CCC(N)=O)C(=O)N[C@@H](CCCCN)C(=O)N[C@@H](CCCNC(=N)N)C(=O)N[C@@H](Cc1ccc(O)cc1)C(=O)NCC(=O)O)C(C)C	4.5	50%	inactive	100%	inactive	794				
C[C@@H](O)[C@@H]1NC(=O)[C@@H](CCCCN)NC(=O)[C@H](Cc2c[nH]c3ccccc23)NC(=O)[C@H](Cc2ccccc2)NC(=O)[C@H](Cc2ccccc2)NC(=O)[C@H](CC(N)=O)NC(=O)[C@H](CCCCN)NC(=O)[C@@H](NC(=O)[C@@H]2CCCN2)CSSC[C@@H](C(=O)N[C@@H](CCCCN)C(=O)O)NC(=O)[C@H](CO)NC(=O)[C@H](CO)NC(=O)[C@@H](Cc2ccccc2)NC1=O [CORTISTATIN-14] (H-PCKNFFW[dK]T[dF]SSCK-OH; disulfide 2-13)		inactive	86%	inactive	100%					6.1
CC(C)[C@H]1C(=O)Nc2ccc(NCCCN(C)C)cc2-c2nc3cc(C(=O)N4CCN(c5ccc(F)cc5)CC4)ccc3n21	5.8	102%	inactive	108%	60%	631				
